From ChEMBL document CHEMBL6134891, “Thienopyrimidinone Derivatives as a GluN2B/C/D Biased, Positive Allosteric Modulator of the N-Methyl-d-Aspartate Receptor” (J Med Chem, 2025) come the findings set out here.

The target of data set [1] is T1, Glutamate receptor ionotropic, NMDA 2C (Rattus norvegicus, UniProt P35439+Q00961).
Description: Positive allosteric modulation of recombinant rat GluN2C receptor expressed in Xenopus oocytes assessed as glutamate/glycine-induced potentiation of current by 2EVC method
For data set [2], the target named is T2, Glutamate receptor ionotropic, NMDA 2B (Rattus norvegicus, UniProt P35439+Q00960).
Description: Positive allosteric modulation of recombinant rat GluN2B receptor expressed in Xenopus oocytes assessed as glutamate/glycine-induced potentiation of current by 2EVC method
Data set [3] concerns the target T3, Glutamate receptor ionotropic, NMDA 2D (Rattus norvegicus, UniProt P35439+Q62645).
Description: Positive allosteric modulation of recombinant rat GluN2D receptor expressed in Xenopus oocytes assessed as glutamate/glycine-induced potentiation of current by 2EVC method
A further data set concerns the target Translocator protein (Homo sapiens, UniProt P30536). Nature of the data set: Inhibition of peripheral benzodiazepine receptor (unknown origin) by radioligand binding assay.
A short description of data set [4]: Kinetic solubility of compound in PBS at pH 7.3 by nephelometry.
The nature of data set [5]: Stability in mouse plasma assessed as half life.
A further data set is described as follows: in vitro. To be noted: human, liver microsomes. (In general: Liver microsomes are vesicles of endoplasmic reticulum, rich in cytochrome P450 enzymes.)
For data set [6], the target named is T1, Glutamate receptor ionotropic, NMDA 2C. The source holds these as a separate data set.
Description: Positive allosteric modulation of recombinant rat GluN2C receptor expressed in Xenopus laevis stage VI oocytes assessed as glutamate/glycine-induced potentiation of current by 2EVC method
Data set [7] is described as follows: Stability in human plasma assessed as half life.
Data set [8] is described as follows: Stability in rat plasma assessed as half life.
In data set [9] the target is T3, Glutamate receptor ionotropic, NMDA 2D. This is another data set of the same source.
Description: Positive allosteric modulation of recombinant rat GluN2D receptor expressed in Xenopus laevis stage VI oocytes assessed as glutamate/glycine-induced potentiation of current by 2EVC method
Data set [10] deals with T2, Glutamate receptor ionotropic, NMDA 2B. The source holds these as a separate data set.
Description: Positive allosteric modulation of recombinant rat GluN2B receptor expressed in Xenopus laevis stage VI oocytes assessed as glutamate/glycine-induced potentiation of current by 2EVC method

T3 sequence (Q62645 whole entry, one chain of several): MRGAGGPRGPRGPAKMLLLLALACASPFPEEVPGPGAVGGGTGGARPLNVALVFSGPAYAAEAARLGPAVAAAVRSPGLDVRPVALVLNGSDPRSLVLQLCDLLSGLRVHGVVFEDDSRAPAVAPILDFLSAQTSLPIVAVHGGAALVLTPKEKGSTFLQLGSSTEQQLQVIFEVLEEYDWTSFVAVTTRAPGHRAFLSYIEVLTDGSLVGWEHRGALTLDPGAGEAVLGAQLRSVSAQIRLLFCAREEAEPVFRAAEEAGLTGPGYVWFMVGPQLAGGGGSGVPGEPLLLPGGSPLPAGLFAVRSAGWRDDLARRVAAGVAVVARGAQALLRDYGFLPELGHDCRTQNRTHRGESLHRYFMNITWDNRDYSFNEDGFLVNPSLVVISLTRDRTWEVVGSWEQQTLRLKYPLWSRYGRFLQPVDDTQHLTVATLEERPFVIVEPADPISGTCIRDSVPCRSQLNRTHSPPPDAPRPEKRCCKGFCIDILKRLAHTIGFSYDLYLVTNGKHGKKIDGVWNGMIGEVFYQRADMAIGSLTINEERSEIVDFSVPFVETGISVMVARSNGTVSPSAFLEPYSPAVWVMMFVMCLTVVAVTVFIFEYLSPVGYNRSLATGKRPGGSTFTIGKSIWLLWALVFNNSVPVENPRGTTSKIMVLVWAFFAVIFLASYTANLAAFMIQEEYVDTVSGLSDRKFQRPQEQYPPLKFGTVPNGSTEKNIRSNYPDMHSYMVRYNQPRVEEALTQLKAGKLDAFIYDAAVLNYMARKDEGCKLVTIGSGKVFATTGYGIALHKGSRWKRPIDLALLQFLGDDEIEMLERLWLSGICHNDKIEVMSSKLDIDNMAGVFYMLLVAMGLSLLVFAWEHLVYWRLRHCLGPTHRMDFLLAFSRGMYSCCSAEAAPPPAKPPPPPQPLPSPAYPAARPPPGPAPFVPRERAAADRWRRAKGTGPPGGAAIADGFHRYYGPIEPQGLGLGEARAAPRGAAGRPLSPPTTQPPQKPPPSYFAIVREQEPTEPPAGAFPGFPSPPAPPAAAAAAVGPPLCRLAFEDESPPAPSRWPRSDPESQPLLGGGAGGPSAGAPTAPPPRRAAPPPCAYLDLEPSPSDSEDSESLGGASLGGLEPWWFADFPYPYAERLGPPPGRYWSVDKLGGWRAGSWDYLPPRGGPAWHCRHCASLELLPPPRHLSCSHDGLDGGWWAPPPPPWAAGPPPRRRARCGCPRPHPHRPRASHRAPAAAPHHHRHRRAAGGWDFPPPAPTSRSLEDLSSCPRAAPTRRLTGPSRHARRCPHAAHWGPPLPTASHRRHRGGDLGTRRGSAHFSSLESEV
T2 sequence (Q00960 whole entry, one chain of several): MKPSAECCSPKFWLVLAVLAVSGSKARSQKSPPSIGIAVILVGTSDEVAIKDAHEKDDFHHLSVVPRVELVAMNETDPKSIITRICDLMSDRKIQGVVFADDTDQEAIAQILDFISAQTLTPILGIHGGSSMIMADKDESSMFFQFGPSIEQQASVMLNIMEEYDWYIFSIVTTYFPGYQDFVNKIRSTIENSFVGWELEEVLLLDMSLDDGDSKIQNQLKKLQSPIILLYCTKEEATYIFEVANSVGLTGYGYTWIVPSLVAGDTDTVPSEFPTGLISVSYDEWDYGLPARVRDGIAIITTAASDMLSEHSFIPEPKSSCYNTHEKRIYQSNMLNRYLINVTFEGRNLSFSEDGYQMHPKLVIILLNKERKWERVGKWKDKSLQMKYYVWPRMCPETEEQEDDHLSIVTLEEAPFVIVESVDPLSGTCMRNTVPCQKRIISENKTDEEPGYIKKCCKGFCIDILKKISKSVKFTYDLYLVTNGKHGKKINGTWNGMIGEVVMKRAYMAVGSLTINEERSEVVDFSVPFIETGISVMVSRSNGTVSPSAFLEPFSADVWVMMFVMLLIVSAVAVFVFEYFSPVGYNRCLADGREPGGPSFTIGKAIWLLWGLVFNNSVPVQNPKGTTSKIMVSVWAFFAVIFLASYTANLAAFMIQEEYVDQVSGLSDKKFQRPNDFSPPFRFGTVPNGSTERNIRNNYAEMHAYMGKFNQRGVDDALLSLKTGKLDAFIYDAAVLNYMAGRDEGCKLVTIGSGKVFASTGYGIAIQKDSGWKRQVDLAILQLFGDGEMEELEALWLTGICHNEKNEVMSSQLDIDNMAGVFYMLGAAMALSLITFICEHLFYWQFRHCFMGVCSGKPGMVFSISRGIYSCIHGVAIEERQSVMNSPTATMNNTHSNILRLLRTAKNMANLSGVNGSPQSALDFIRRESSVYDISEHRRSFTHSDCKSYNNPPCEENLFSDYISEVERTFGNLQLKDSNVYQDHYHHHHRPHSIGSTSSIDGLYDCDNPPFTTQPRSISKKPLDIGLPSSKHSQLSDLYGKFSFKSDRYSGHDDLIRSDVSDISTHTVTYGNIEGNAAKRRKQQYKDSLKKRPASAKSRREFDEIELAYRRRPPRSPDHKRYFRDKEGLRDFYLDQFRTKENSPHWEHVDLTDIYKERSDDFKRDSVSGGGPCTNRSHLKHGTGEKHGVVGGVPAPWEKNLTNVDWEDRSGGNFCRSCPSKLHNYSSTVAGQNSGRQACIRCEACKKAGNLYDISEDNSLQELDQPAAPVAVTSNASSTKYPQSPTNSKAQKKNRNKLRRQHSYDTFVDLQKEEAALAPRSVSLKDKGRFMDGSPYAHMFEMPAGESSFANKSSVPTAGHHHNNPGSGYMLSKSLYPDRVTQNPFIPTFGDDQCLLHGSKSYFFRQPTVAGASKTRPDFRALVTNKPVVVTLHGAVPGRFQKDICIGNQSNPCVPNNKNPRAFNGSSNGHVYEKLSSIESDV
T1 sequence (Q00961 whole entry, one chain of several): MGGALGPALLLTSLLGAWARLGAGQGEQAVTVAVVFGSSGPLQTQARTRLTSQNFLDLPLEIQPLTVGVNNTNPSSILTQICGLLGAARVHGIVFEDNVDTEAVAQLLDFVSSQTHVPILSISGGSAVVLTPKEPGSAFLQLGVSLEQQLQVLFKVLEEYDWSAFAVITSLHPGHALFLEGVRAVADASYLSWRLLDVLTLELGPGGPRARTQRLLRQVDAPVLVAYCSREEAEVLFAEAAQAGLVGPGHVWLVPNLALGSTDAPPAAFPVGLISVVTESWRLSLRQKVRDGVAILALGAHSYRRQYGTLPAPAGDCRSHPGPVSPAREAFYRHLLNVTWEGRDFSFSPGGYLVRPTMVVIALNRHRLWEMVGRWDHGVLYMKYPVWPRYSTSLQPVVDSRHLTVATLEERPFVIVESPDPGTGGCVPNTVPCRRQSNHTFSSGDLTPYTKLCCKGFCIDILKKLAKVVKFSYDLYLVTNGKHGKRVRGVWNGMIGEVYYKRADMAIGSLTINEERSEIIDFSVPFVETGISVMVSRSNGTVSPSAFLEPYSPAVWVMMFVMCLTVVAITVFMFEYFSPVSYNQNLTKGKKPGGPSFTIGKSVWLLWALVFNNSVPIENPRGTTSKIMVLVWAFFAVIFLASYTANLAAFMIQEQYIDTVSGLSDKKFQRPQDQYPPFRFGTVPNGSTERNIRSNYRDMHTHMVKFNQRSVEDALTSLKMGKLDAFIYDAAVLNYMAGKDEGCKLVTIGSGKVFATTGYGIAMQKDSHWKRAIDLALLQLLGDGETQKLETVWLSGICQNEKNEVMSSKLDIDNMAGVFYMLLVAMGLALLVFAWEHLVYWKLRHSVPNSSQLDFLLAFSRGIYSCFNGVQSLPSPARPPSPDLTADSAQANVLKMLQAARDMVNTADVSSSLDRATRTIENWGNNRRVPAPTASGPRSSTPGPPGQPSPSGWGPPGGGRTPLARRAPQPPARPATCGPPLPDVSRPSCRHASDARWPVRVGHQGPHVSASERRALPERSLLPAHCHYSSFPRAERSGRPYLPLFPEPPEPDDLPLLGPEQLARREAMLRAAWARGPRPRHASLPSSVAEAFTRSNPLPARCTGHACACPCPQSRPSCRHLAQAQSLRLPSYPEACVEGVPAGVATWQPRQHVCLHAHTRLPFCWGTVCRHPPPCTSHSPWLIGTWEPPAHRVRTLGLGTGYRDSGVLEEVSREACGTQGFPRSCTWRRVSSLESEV
Sequence of Translocator protein (P30536 whole entry): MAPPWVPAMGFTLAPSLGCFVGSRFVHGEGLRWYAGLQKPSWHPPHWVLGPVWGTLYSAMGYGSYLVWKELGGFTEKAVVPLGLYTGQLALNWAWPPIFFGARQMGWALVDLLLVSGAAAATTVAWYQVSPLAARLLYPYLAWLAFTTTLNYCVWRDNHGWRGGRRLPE
Description for in vitro: Intrinsic clearance in human liver microsomes at 3 uM preincubated for 5 mins followed by NADPH addition measured up to 30 mins by LC-MS/MS analysis

In general, EC50 refers to the concentration at which the effect is half-maximal. High values mean lower potency in that assay, low ones higher potency in that assay. One may read the Ki as the equilibrium dissociation constant of an inhibitor or competing ligand from its target. On to `C#Cc1sc2ncn(CC(=O)N3CC(C)(F)C3)c(=O)c2c1-c1ccc(F)c(Br)c1`, for which the values for the EC50 in data set [1], in [2] and in data set [3] were 0.82 µM, 0.57 µM and 1.1 µM, respectively. Besides, the Ki on Translocator protein came out at 0.55 µM.

As usually defined, the kinetic solubility is solubility judged after dilution from a stock solution rather than from solid. For orientation: half-life means how long it takes for the measured level to halve. Broadly, the microsomal CLint is a measure of how fast metabolising enzymes remove a compound, apart from limits set by blood flow. High values mean rapid turnover, low ones slow turnover. Consider `Cc1sc2ncn(CC(=O)N3CCCC3)c(=O)c2c1-c1cccc(Br)c1`, for which, in data set [4], the solubility (kinetic) was more than 100 µM. For the same molecule, the half-life in data set [5], in data set [7] and in data set [8] was more than 4 h throughout. The molecule further came in with a microsomal CLint at 0.5 h, 3 µM in “in vitro” of 50 µL/min/mg. Moreover, the values for the EC50 in data set [6], in data set [9] and in [10] were 12 µM, 18 µM and 9.9 µM, respectively.
